The target of this assay is T1, glutaminase (GAC) (Homo sapiens, UniProt O94925).
T1 sequence (O94925 55-598 isoform O94925-3 limits assumed): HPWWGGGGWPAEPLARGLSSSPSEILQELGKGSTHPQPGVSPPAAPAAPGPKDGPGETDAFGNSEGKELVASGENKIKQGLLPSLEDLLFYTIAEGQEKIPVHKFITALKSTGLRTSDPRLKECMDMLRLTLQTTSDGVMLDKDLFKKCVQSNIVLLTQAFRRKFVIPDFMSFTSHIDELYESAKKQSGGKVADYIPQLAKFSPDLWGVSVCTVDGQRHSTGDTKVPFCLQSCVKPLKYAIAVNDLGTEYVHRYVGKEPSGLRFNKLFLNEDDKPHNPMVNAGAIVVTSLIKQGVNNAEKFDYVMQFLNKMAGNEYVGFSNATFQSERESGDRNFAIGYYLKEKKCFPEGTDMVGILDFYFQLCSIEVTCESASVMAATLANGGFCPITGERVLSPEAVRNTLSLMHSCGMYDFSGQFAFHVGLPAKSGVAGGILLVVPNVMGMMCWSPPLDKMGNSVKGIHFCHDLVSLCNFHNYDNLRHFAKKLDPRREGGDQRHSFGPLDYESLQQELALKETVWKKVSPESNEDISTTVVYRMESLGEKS
In words: glutaminase coupled endpoint assay (Example A). The assay is classed as biochemical. The conditions noted are these: inhibition of glutaminase; assay of Example A or Example B. Here is the method:
In this example, the enzymatic activity of glutaminase is measured through a coupled endpoint assay. Glutamine and phosphate are supplied to GAC at a concentration equal to Km and AC50, respectively, and GAC concentration is adjusted to give a linear reaction for 60 minutes. The glutamate produced is converted to 2-OG by a kinetic excess of glutamate dehydrogenase. This second step is configured for 2× Km for NAD, since excess NAD is inhibitory. However, a kinetic excess of the third coupling enzyme, diaphorase, recycles NAD from NADH to keep the NAD concentration constant during the timecourse of the assay. Diaphorase, also supplied in kinetic excess, oxidizes NADH produced by GDH back to NAD with the concomitant reduction of rezasurin to the highly fluorescent resorufin. Resorufin in measured after the assay is stopped with SDS by Ex544/Em590. A reduction in the signal indicates inhibition of some component of the coupled enzyme system. Prospective hits are counterscreened against GDH/diaphorase alone to remove hits to the coupling enzyme system in a second assay.
2. Buffers • 2× Buffer (300 mM NaCl, 100 mM HEPES pH 8.5, 0.1% BSA, 0.5 mM EDTA, 100 mM sodium phosphate pH 8.5) • 5× Substrate Mix (1× Buffer final concentration, with 13 mM glutamine, 100 μM resazurin, 50 μg/ml diaphorase) • 1.2× Enzyme Mix (1× Buffer final concentration, with 0.875 μg/ml GAC, 1.56 mM NAD, 6.25 units/ml GDH) • Stop Mix (6% SDS in ddH20) Reaction Procedure • 1. Add 1 μl compound in 100% DMSO • 2. Add 40 μl of Enzyme Mix and incubate for 60 minute at room temperature • 3. Add 10 μl of Substrate Mix to start reaction • 4. Stop reaction with 25 μl of 6% SDS and read Ex544 Em 590
A compound described herein may be tested for its ability to inhibit glutaminase, e.g., by an assay as described in the Examples. For simplicity, the inhibition activity of these compounds is represented as an IC50 tested in an assay of Example A or Example B in Table 1. As shown, “A” refers to an inhibitor of glutaminase with an IC50<100 nM. “B” refers to inhibitor of glutaminase with an IC50 between 100 nM and 500 nM. “C” refers to inhibitor of glutaminase with an IC50 between 500 nM and 1000 nM. “D” refers to inhibitor of glutaminase with an IC50 between 1 μM and 2 μM. “E” refers to inhibitor of glutaminase with an IC50 between 2 μM and 10 μM. “N/A” refers to compounds wherein the IC50 is unavailable.

The record followed here is US10000479B2, “Compounds and their methods of use” (AGIOS PHARMACEUTICALS, INC., priority 2014, dated 2018).

SMILES strings stand for the structures.

As for `O=C(Cc1ccccc1)Nc1ccc([C@@H]2CCC[C@H](c3ccc(NC(=O)Cc4ccccc4)nn3)C2)nn1` [Compound 10, N,N′-(6,6′-((1R,3S)-cyclohexane-1,3-diyl)bis(pyridazine-6,3-diyl))bis(2-phenylacetamide)], the IC50 – broadly, the concentration needed to halve the response being measured – was less than 100 nM.

`O=C(Cc1ccccn1)Nc1ccc([C@@H]2CCC[C@@H](c3ccc(NC(=O)Cc4ccccn4)nn3)C2)nn1` (racemic) [Compound 14, Trans-(rac)-N,N′-(6,6′-(cyclohexane-1,3-diyl)bis(pyridazine-6,3-diyl))bis(2-(pyridin-2-yl)acetamide)] had a 50% inhibitory concentration (IC50) of less than 100 nM.

For `CC(=O)Nc1ccc([C@H]2CCC[C@H](c3ccc(NC(C)=O)nn3)C2)nn1` (racemic) [Compound 41, Trans-(rac)-N,N′-(6,6′-(cyclohexane-1,3-diyl)bis(pyridazine-6,3-diyl))diacetamide], the IC50 was in the range of 2000 to 10000 nM.

Regarding `O=C(Cc1ccccn1)Nc1ccc([C@@H]2CCC[C@H](c3ccc(NC(=O)Cc4ccccn4)nn3)C2)nn1` [Compound 20, N,N′-(6,6′-((1R,3S)-Cyclohexane-1,3-diyl)bis(pyridazine-6,3-diyl))bis(2-(pyridin-2-yl)acetamide)], the half-maximal inhibitory concentration (IC50) is less than 100 nM.

Take `O=C(Cc1ccccn1)Nc1ccc(C2CCC(c3ccc(NC(=O)Cc4ccccn4)nn3)C2)nn1` (stereo not shown) [Compound 175, N, N′-(6,6′-(Cyclopentane-1,3-diyl)bis(pyridazine-6,3-diyl))bis(2-(pyridin-2-yl)acetamide)]: the IC50 was less than 100 nM.

As to `O=C(Cc1cccc(OC(F)(F)F)c1)Nc1ccc([C@@H]2CCC[C@H](c3ccc(NC(=O)Cc4cccc(OC(F)(F)F)c4)nn3)C2)nn1` [Compound 180], the half-inhibitory concentration (IC50) was 100 to 500 nM.

Consider `CCC(=O)Nc1ccc([C@@H]2CCC[C@H](c3ccc(NC(=O)CC)nn3)C2)nn1` [Compound 152, N,N′-(6,6′-((1R,3S)-Cyclohexane-1,3-diyl)bis(pyridazine-6,3-diyl))dipropionamide], for which the half-maximal inhibitory concentration (IC50) was less than 100 nM.

Turning to `O=C(Nc1ccc([C@@H]2CCC[C@H](c3ccc(NC(=O)OCc4ccccc4)nn3)C2)nn1)OCc1ccccc1` [Compound 176, Dibenzyl (6,6′-((1R,3S)-cyclohexane-1,3-diyl)bis(pyridazine-6,3-diyl))dicarbamate], the half-maximal inhibitory concentration (IC50) was less than 100 nM.

On to `O=C(Cc1ccc(OC(F)(F)F)cc1)Nc1ccc([C@H]2CCC[C@H](c3ccc(NC(=O)Cc4ccc(OC(F)(F)F)cc4)nn3)C2)nn1` (racemic) [Compound 75, Trans-(rac)-N,N′-(6,6′-(cyclohexane-1,3-diyl)bis(pyridazine-6,3-diyl))bis(2-(4-(trifluoromethoxy)phenyl)acetamide)], for which the IC50 was in the range of 2000 to 10000 nM.

Take `CCCC(=O)Nc1ccc([C@@H]2CCC[C@H](c3ccc(NC(=O)CCC)nn3)C2)nn1` [Compound 37, N,N′-(6,6′-((1R,3S)-Cyclohexane-1,3-diyl)bis(pyridazine-6,3-diyl))dibutyramide]: the 50% inhibitory concentration (IC50) was less than 100 nM.

The compound `CC(=O)Nc1ccc([C@@H]2CCC[C@H](c3ccc(NC(C)=O)nn3)C2)nn1` [Compound 99, N,N′-(6,6′-((1R,3S)-Cyclohexane-1,3-diyl)bis(pyridazine-6,3-diyl))diacetamide] yielded a half-inhibitory concentration (IC50) of less than 100 nM.

Compound `CC(C)C(=O)Nc1ccc([C@@H]2CCC[C@H](c3ccc(NC(=O)C(C)C)nn3)C2)nn1` [Compound 98, N,N′-(6,6′-((1R,3S)-Cyclohexane-1,3-diyl)bis(pyridazine-6,3-diyl))bis(2-methylpropanamide)] yielded an IC50 of 100 to 500 nM.

`O=C(Cc1ccccc1)Nc1ccc([C@H]2CCC[C@@H](c3nnc(NC(=O)Cc4ccccc4)s3)C2)nn1` [Compound 291, 2-Phenyl-N-(6-((1S,3R)-3-(5-(2-phenylacetamido)-1,3,4-thiadiazol-2-yl)cyclohexyl)pyridazin-3-yl)acetamide] gave an IC50 of less than 100 nM.
